Literature values in US20080004223A1, “DERMATOLOGICAL USES OF THE TRIPEPTIDE MELANOCYTE STIMULATING INHIBITORY FACTOR (MIF)” (priority 2006, published 2008).
Read-outs that look alike come from different tables or passages of the source. Residues, ends and D or L forms follow the SMILES beside them. No end group written: not given here.

Assays:
[1] = mice, modified Dopa test; U.S. Pat. No. 3,708,593
[2] = rats; Petersson et al. 2004
[3] = U.S. Pat. No. 4,278,595
[4] = water wheel test; Kastin et al. 1984
[5] = rats; Petersson et al. 2001
[6] = rats; Pahdy et al. 2005
[7] = rats; Hayashi et al. 1983, 1984
[8] = rats; Kastin et al. 1985

Row | metabolism subsequent to administration [3] | Molecule | antidepressant activity [1] | oxytocin levels [2] | antidepressant activity [4] | carrageenan induced inflammation [5] | latex-induced inflammatory hyperalgesia [6] | effect on passive avoidance [7] | inhibition of the analgesic effect of morphine [8]
1 | rapidly metabolized | CC(C)C[C@H](NC(=O)[C@@H]1CCCN1)C(=O)NCC(N)=O [MIF, prolyl-leucyl-glycinamide] (H-Pro-Leu-Gly-NH2) | exhibits antidepressant activity | decreases oxytocin levels | active as antidepressants |  |  |  | 
2 |  | CC[C@H](C)[C@@H]1NC(=O)[C@H](Cc2ccc(O)cc2)NC(=O)[C@@H](N)CSSC[C@@H](C(=O)N2CCC[C@H]2C(=O)N[C@@H](CC(C)C)C(=O)NCC(N)=O)NC(=O)[C@H](CC(N)=O)NC(=O)[C@H](CCC(N)=O)NC1=O [oxytocin] |  |  |  | decreases carrageenan induced inflammation | inhibit Calotropis procera latex-induced inflammatory hyperalgesia |  | 
3 |  | Tyr-Pro-Leu-Gly-NH2 (YPLG-NH2) [Tyr-MIF-1, brain derived peptide] |  |  | active as antidepressants |  |  | shown to affect passive avoidance | active in inhibiting the analgesic effect of morphine
